# Data published in ChEMBL document CHEMBL5104165, “Novel fragment-derived colchicine-site binders as microtubule-destabilizing agents” (Eur J Med Chem, 2022).
# pIC50: −log10 of the molar value. Active and inactive are the calls of the source. The rule behind the calls is not given here.
# Key:
# HeLa = test: Cytotoxicity against human HeLa cells assessed as inhibition of cell growth incubated for 72 hrs by resazurin dye based assay; format: functional
# Tubulin (Homo sapiens) [1] = molecular target: T1, Tubulin (Homo sapiens) (UniProt P68371+Q9H4B7+P0DPH7+P68366+Q13509+Q71U36+P04350+Q3ZCM7+P07437+P68363+Q9BQE3+Q6PEY2+Q13885+Q9BVA1+Q9BUF5); test: Disruption of microtubules in human HMF3A cells assessed as increase in cell size at 5 uM measured after 4 hrs by immunostaining based confocal microscopic analysis
# Tubulin (Homo sapiens) [2] = molecular target: T1, Tubulin (Homo sapiens); test: Disruption of microtubules in human HMF3A cells at 5 uM measured after 1 hr by immunostaining based confocal microscopic analysis; format: cell-based
# Tubulin (Homo sapiens) [3] = molecular target: T1, Tubulin (Homo sapiens); test: Disruption of microtubules in human HMF3A cells assessed as increase in nucleus size at 5 uM measured after 4 hrs by immunostaining based confocal microscopic analysis; format: cell-based
Structure (SMILES),pIC50 (HeLa),other results
FC(F)(F)c1ccc2[nH]c(NCc3ccco3)nc2c1,5.00,
Cc1ccc(CNc2nc3ccccc3[nH]2)o1,4.65,
N#Cc1ccc2[nH]c(NCc3ccco3)nc2c1,< 4.10,
Clc1ccc2[nH]c(NCc3ccco3)nc2c1,5.35,
COC(=O)c1ccc2[nH]c(NCc3ccco3)nc2c1,5.15,
c1coc(CNc2nc3ccccc3[nH]2)c1,4.27,
Cc1ccc2[nH]c(NCc3ccco3)nc2c1,5.25,
COc1ccc2[nH]c(NCc3ccco3)nc2c1,5.00,
c1ccc(Oc2ccc3[nH]c(NCc4ccco4)nc3c2)cc1,6.03,Activity (Tubulin (Homo sapiens) [1]): Active; Activity (Tubulin (Homo sapiens) [2]): Active; Activity (Tubulin (Homo sapiens) [3]): Active
